Reference: US20260251642A1, “MOLECULAR TENSION SENSOR WITH NUCLEIC ACIDS AND HUH-TAGS” (REGENTS OF THE UNIVERSITY OF MINNESOTA, priority 2022, published 2026)
Values joined by “and” are separate entries in the source; they are usually repeats but may differ in a detail not shown here. Equal values may be shown once.

Key:
[1] = test system: U251 cells; test: RAD-TGT rupture and delivery, flow cytometry readout, U251 cells; assay type: cell-based, human; settings: versus DMSO
Experimental: (§1) RAD-TGT Synthesis: TGTs were designed using previously characterized DNA sequences with a 5′ extension to allow for HUH binding. The following oligonucleotides were purchased from Integrated DNA Technologies. To prepare TGTs, anchor and ligand strands were mixed in a 1.1:1 ratio and then annealed in a 1× annealing buffer by heating at 98° C. for five minutes followed by cooling at room temperature for 1 hour. Excess bottom strand was used to mitigate any single stranded fluorescent top strand which may be internalized resulting in false positives. RAD-TGTs were then generated by reacting HUH-ligand of interest with the annealed duplex in a 2:1 ratio. […]
(§2) RAD-TGT Experimental Setup: Cells of interest were trypsinized for five minutes and transferred to Opti-MEM Reduced Serum Media. Cells were then counted using an automated cell counter. […] Cells were removed from wells and analyzed with a BD ACCURI C6 Plus Personal Flow Cytometer without further washing.
(§3) Statistical Analysis: In general, each experiment was performed on at least three separate days with 1-3 separated wells per day. […] The fluorescence data were concatenated to produce the dot plots. The medians of the normalized data for each biological replicate were used to overlay on the dot plot, and statistical significance was calculated using unpaired ANOVA as previously described.

[2] = test system: CHO-K1 cells; test: RAD-TGT rupture and delivery, flow cytometry readout, CHO-K1 cells; assay type: cell-based; settings: versus DMSO
Experimental: as §1, §2, §3

[3] = test system: U251 and CHO-K1 cells; test: Soluble RAD-TGT (echistatin) titration on U251 and CHO-K1 cells; assay type: cell-based
Experimental: FIG. 15. Soluble RAD-TGT titration highlights differences in integrin composition between cell lines. Soluble RAD-TGTs composed of the echistatin conjugated to fluorescently labeled ligand strand annealed to the non-anchor strand was added into the wells at varying concentrations ranging from […]. The total picomolar (pmol) range of oligo was from […]. Thus, the standard RAD-TGT experiment in the main text contained […] oligo assuming all oligo properly adhered, thus this is representative of experimental conditions. From this it was concluded that U251 cells internalize the soluble RAD-TGT at a greater rate than the CHO-K1 cells, […]

[4] = target: integrin receptors; settings: cited from earlier work
[5] = target: integrins on U251 cells; test: cell-based or functional assay
[6] = target: integrins on U251 cells

With `Cc1ccc2c(c1)C(=O)[C@]1(O)CCN(c3ccc(N)cc3)C1=N2` [Para-amino-blebbistatin, reference compound] the “decrease in fluorescence upon treatment” value ([1]; U251 on WDV-Echi RAD-TGTs, 50 μM, 30 minutes pre-incubation) was ~ 30%, the “effect on median fluorescence, FN ligand” value ([1]; U251 on WDV-FN CY5-labeled RAD-TGTs) was “reduces median fluorescence” and the “decrease in fluorescence upon treatment” value ([2]; CHO-K1 on WDV-Echi RAD-TGTs, 50 μM, 30 minutes pre-incubation) was ~ 30%. The “effect on median fluorescence, FN ligand” value ([2]; CHO-K1 on WDV-FN CY5-labeled RAD-TGTs) was “reduces median fluorescence”.
For Echistatin, the “difference in bound echistatin between U251 and CHO-K1 cells” value [3] is listed as “three-to-four-fold” and the “affinity for a broad range of integrin receptors” value [4] is listed as “sub-nanomolar”.
For “WDV-echistatin integrin ligand (echistatin recombinantly expressed as a fusion protein with the HUH- (from UniProt P17347 131-179)”, the increase in median fluorescence, 12 pN RAD-TGT, U251 cells, flow cytometry [5] was 12 fold, the increase in median fluorescence, 54 pN RAD-TGT, U251 cells, flow cytometry [5] was 7 fold and the fold difference in bound echistatin, U251 against CHO-K1 cells [6] was 3 fold and 4 fold.
